In EP0495091B1 (Metabasis Therapeutics Inc., priority 1990, dated 1992):
Where a name gives a salt, the structure may show the parent alone. Read-outs that look alike come from different tables or passages of the source.

What was measured:
[1] = test system: longitudinal muscle from the guinea pig ileum; experiment: Inhibition of stimulated contraction in isolated ileum
Procedure: Parallel platinum electrodes were used to deliver electrical current at 1 minute intervals at a voltage adequate to induce contraction of 90% of maximal.

[2] = target: T1, NBTI-specific adenosine transport site (Homo sapiens, UniProt Q99808); experiment: [3H]-NBTI binding assay; conditions: 50% displacement of bound [3H]-NBTI (0.5 nM); neuronal membrane protein, 30 minutes, pH 7.4, room temperature; read-out: ED50 (the source's name)
T1 construct: incubated for 30 minutes with 0.5 mg neuronal membrane protein together with 0.5 nM [^3H]-NBTI; from tissue
T1 sequence (Q99808 1-456): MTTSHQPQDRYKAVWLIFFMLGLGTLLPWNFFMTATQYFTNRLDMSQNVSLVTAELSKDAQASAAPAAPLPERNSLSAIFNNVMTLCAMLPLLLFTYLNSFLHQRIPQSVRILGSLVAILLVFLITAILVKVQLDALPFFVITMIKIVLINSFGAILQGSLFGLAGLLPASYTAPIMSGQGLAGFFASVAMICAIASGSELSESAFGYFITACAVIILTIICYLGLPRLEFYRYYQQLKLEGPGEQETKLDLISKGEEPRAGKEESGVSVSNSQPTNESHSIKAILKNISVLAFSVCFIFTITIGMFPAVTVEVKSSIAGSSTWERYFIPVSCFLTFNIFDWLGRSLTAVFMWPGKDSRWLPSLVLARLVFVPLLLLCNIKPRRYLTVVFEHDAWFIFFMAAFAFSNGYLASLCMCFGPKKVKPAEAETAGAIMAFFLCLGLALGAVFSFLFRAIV
Procedure: Increasing concentrations of the test compounds were incubated for 30 minutes with 0.5 mg neuronal membrane protein together with 0.5 nM [^3H]-NBTI in a Tris buffer (pH 7.4) at room temperature. The assays were quenched and membranes collected by rapid filtration. Filters were then solubilized and radioactivity determined by scintillation counting.

Isolated rat hearts = experiment: Improved functional recovery in isolated hearts (Langendorff, post-ischemic LVDP); conditions: 5 µM in perfusion buffer; 30 min ischemia, 30 min reperfusion; number in brackets = hearts
Procedure: Isolated rat hearts were cannulated via the ascending aorta and attached to a perfusion apparatus according to the method of Langendorff. The hearts were perfused at a constant pressure of 100 cm of H2O with a modified Krebs-Henseleit buffer (pH 7.4) at 37°C. As a measure of heart function, left ventricular developed pressure (LVDP) was continuously monitored. Following equilibration of the hearts for a period of 30 min., the hearts were subjected to reduced flow i.e. ischemia, by reducing the pressure to 10 cm of H2O for 30 min. Flow was then restored by returning the pressure to its original level (100 cm of H2O) for a further 30 min.

[3] = test system: coronary endothelial cells; experiment: Inhibition of adenosine utilization in cell culture; type: cell-based; conditions: for inhibition at 5 µM / inhibition at 50 µM: Endothelial cell, read-out: Inhibition of Adenosine Utilization (%)
Procedure: Inhibition of adenosine utilization was determined by measuring the concentration of extracellular adenosine by scintillation counting following separation by thin layer chromatography (TLC).

[4] = Cavia porcellus, concentration which inhibited electrically stimulated contraction by 50%, read-out: IC50
[5] = concentration which inhibited electrically stimulated contraction by 50%, read-out: IC50
[6] = 5 µM test compound, 1 µM [3H] adenosine, 15 minutes
[7] = 50 µM test compound, 1 µM [3H] adenosine, 15 minutes

Row | Compound | EC50 [2] [µM] | Function Recovery % Baseline LVDP (% of hearts) (Isolated rat hearts) | further results
1 | Nc1c(C(=O)NCc2ccccc2Cl)ncn1[C@@H]1O[C@H](CO)[C@@H](O)[C@H]1O [Compound No. 24, 5-Amino-1-β-D-ribofuranosylimidazole-4-N-[(2-chlorophenyl)methyl]carboxamide] | 300 |  | IC50 ([1]; Cavia porcellus): 400 µM
2 | Nc1c(C(=O)NCc2cccc(Cl)c2)ncn1[C@@H]1O[C@H](CO)[C@@H](O)[C@H]1O [Compound No. 35, 5-amino-1-β-D-ribofuranosyl-imidazole-4-N[(3-chlorophenyl)methyl]carboxamide] |  |  | IC50 [1, 4]: 60 µM
3 | Cl.NC[C@H]1O[C@@H](n2cnc(C(=O)NC3CCCC3)c2N)[C@H](O)[C@@H]1O [Compound No. 37, 5-Amino-1-(5-amino-5-deoxy-β-D-ribofuranosyl)imidazole-4-N-(cyclopentyl)carboxamide Hydrochloride] |  | 71.9±3.0 (5) % | 
4 | CN(C)c1ccc(CNC(=O)c2ncn([C@@H]3O[C@H](CO)[C@@H](O)[C@H]3O)c2N)cc1 [Compound No. 41, 5-Amino-1-β-D-ribofuranosylimidazole-4-N(4-dimethylaminobenzyl)-carboxamide hydrochloride] |  |  | IC50 [1, 5]: 100 µM
5 | Nc1c(C(=O)NCc2cccc(I)c2)ncn1[C@@H]1O[C@H](CO)[C@@H](O)[C@H]1O [Compound No. 44, 5-Amino-1-β-D-ribofuranosyl-imidazole-4-N-[(3-iodophenyl)methyl]carboxamide] |  |  | IC50 [1, 4]: 20 µM
6 | Nc1c(C(=O)NC2CC3CCC2C3)ncn1[C@@H]1O[C@H](CO)[C@@H](O)[C@H]1O (stereo partly drawn) [Compound No. 45, 5-Amino-1-β-D-ribofuranosylimidazole-4-N-(2-endo-norbornyl)carboxamide] | 90 |  | IC50 ([1]; Cavia porcellus): 100 µM
7 | Nc1c(C(=O)NCc2ccc([N+](=O)[O-])cc2)ncn1[C@@H]1O[C@H](CI)[C@@H](O)[C@H]1O [Compound No. 46, 5-Amino-1-(5-iodo-5-deoxy-β-D-ribofuranosyl)imidazole-4-N-[(4-nitrophenyl)methyl]carboxamide] | 8 |  | inhibition at 5 µM [3]: 19 ± 4%; inhibition at 50 µM [3]: 30 ± 9%
8 | Nc1c(C(=O)N2CCc3ccccc32)ncn1[C@@H]1O[C@H](CO)[C@@H](O)[C@H]1O [Compound No. 48, 5-Amino-1-β-D-ribofuranosyl-imidazole-4-N-indolinylcarboxamide] | 22 |  | inhibition at 5 µM [3]: 23 ± 3%; inhibition at 50 µM [3]: 25 ± 2%
9 | C[C@@H](NC(=O)c1ncn([C@@H]2O[C@H](CO)[C@@H](O)[C@H]2O)c1N)c1ccc([N+](=O)[O-])cc1 [Compound No. 49] | 7 |  | inhibition at 5 µM [3]: 30 ± 4%; inhibition at 50 µM [3]: 33 ± 8%
10 | C[C@H](NC(=O)c1ncn([C@@H]2O[C@H](CO)[C@@H](O)[C@H]2O)c1N)c1ccc([N+](=O)[O-])cc1 [Compound No. 50, (S)-5-Amino-1-β-D-ribofuranosylimidazole-4-N-[1-(4-nitrophenyl)ethyl]carboxamide] | 28 |  | 
11 | [N-]=[N+]=NC[C@H]1O[C@@H](n2cnc(C(=O)NCc3ccc(Cl)cc3)c2N)[C@H](O)[C@@H]1O [Compound No. 52, 5-Amino-1-(5-azido-5-deoxy-β-D-ribofuranosyl)imidazole-4-N-[(4-chlorophenyl)methyl]-carboxamide] |  | 86.0±2.5 (5) % | inhibition at 5 µM [3, 6]: 56 ± 2%; inhibition at 50 µM [3, 7]: 71 ± 1%
12 | CSC[C@H]1O[C@@H](n2cnc(C(N)=O)c2N)[C@H](O)[C@@H]1O [Compound No. 54, 5-Amino-1-(5-deoxy-5-methylthio-β-D-ribofuranosyl)imidazole-4-carboxamide] | 28 |  | 
13 | Nc1c(C(=O)Nc2ccc(Br)cc2)ncn1[C@@H]1O[C@H](CO)[C@@H](O)[C@H]1O [Compound No. 55, 5-Amino-1-β-D-ribofuranosylimidazole-4-N-(4-bromophenyl)carboxamide] | 60 |  | 
14 | Nc1c(C(=O)Nc2ccc(I)cc2)ncn1[C@@H]1O[C@H](CO)[C@@H](O)[C@H]1O [Compound No. 57, 5-Amino-1-β-D-ribofuranosyl-imidazole-4-N-(4-iodophenyl)carboxamide] | 80 |  | 
15 | Nc1c(C(=O)Nc2ccc([N+](=O)[O-])cc2)ncn1[C@@H]1O[C@H](CO)[C@@H](O)[C@H]1O [Compound No. 58, 5-Amino-1-β-D-ribofuranosylimidazole-4-N-(4-nitrophenyl)carboxamide] | 80 |  | 
16 | Nc1c(C(=O)N2CCN(c3ccc([N+](=O)[O-])cc3)CC2)ncn1[C@@H]1O[C@H](CO)[C@@H](O)[C@H]1O [Compound No. 60, 5-Amino-4-[1-[4-(4-nitrophenyl)]piperazinocarbamoyl]-1-β-D-ribofuranosylimidazole] | 17 |  | 
17 | CNC[C@H]1O[C@@H](n2cnc(C(N)=O)c2N)[C@H](O)[C@@H]1O [Compound No. 63, 5-Amino-1-β-D-(5-deoxy-5-methylaminoribofuranosyl)imidazole-4-carboxamide] |  | 79.7±4.8 (4) % | 
18 | Nc1c(C(=O)Nc2ccccc2Cl)ncn1[C@@H]1O[C@H](CO)[C@@H](O)[C@H]1O [Compound No. 64, 5-Amino-1-β-D-ribofuranosylimidazole-4-N-(2-chlorophenyl)carboxamide] | 48 |  | 
19 | NC(=O)c1ncn([C@@H]2O[C@H](CNCc3ccccc3)[C@@H](O)[C@H]2O)c1N [Compound No. 66, 5-Amino-1-β-D-(5-benzylamino-5-deoxyribofuranosyl)imidazole-4-carboxamide] |  | 88.5±1.8 (5) % | 
20 | C[C@H]1O[C@@H](n2c(S)nc(C(N)=O)c2N)[C@H](O)[C@@H]1O [Compound No. 67, 5-Amino-2-thio-1-β-D-(5-deoxyribofuranosyl)imidazole-4-carboxamide] |  | 77.4±5.7 (3) % | 
21 | Nc1c(C(=O)NCCCCCCNC(=O)c2ncn([C@@H]3O[C@H](CO)[C@@H](O)[C@H]3O)c2N)ncn1[C@@H]1O[C@H](CO)[C@@H](O)[C@H]1O [Compound No. 68, N,N'-bis-(5-amino-1-β-D-ribofuranosylimidazole-4-carbonyl)-1,6-diaminohexane] |  | 75.3±2.2 (4) % | 
22 | Nc1c(C(=O)NC2CCC(NC(=O)c3ncn([C@@H]4O[C@H](CO)[C@@H](O)[C@H]4O)c3N)CC2)ncn1[C@@H]1O[C@H](CO)[C@@H](O)[C@H]1O (stereo partly drawn) [Compound No. 69, N,N'-Bis-(5-Amino-1-β-D-ribofuranosylimidazole-4-carbonyl)-1,4-diaminocyclohexane] |  | 77.0±2.8 (6) % | 
23 | Nc1c(C(=O)NCCCc2ccc([N+](=O)[O-])cc2)ncn1[C@@H]1O[C@H](CO)[C@@H](O)[C@H]1O [Compound No. 73] |  |  | Inhibition of Adenosine Utilization (%) [3, 6]: 16 ± 0%; Inhibition of Adenosine Utilization (%) [3, 7]: 33 ± 9%
24 | Nc1c(C(=O)NCc2ccc(C(F)(F)F)cc2)ncn1[C@@H]1O[C@H](CO)[C@@H](O)[C@H]1O [Compound No. 74] |  | 73.3±3.3 (6) % | 
25 | Nc1c(C(=O)NCc2ccc(S(N)(=O)=O)cc2)ncn1[C@@H]1O[C@H](CO)[C@@H](O)[C@H]1O [Compound No. 75, 5-Amino-1-β-D-ribofuranosylimidazole-4-N-[(4-sulfamoylphenyl)methyl]carboxamide] |  |  | Inhibition of Adenosine Utilization (%) [3, 7]: 30 ± 3%
26 | NC(=O)c1ncn([C@@H]2O[C@H](CNCc3ccc(Cl)cc3)[C@@H](O)[C@H]2O)c1N [Compound No. 76, 5-Amino-1-(5-(4-chlorobenzyl-amino)-5-deoxyβ-D-ribofuranosyl)imidazole-4-carboxamide] |  | 74.0±2.5 (6) % | 
27 | Nc1c(C(=O)NC[C@H](O)c2ccc(O)c(O)c2)ncn1[C@@H]1O[C@H](CO)[C@@H](O)[C@H]1O [compound 42, (R)-5-Amino-1-β-D-ribofurano-sylimidazole-4-N-[2-hydroxy-2-(3,4-dihydroxyphenyl)ethyl]carboxamide] |  |  | IC50 [1, 5]: 6 µM
28 | CCN(CC)C[C@H]1O[C@@H](n2cnc(C(N)=O)c2N)[C@H](O)[C@@H]1O [compound 65, 5-Amino-1-(5-deoxy-5-diethylaminoribo-β,D-furanosyl)imidazole-4-carboxamide] |  | 72.3±5.6 (4) % | 
